In patent US20100069854A1, “Elastomeric Devices Containing Chlorhexidine/Fatty Acid Salts Made From Fatty Acids of 12 to 18 Carbons” (priority 2008, published 2010):

Legend:
[1] = Rate of release of chlorhexidine/fatty acid salts from coated polyurethane tubes into DI water; type: physicochemical; settings: for Cumulative release of the chlorhexidine/fatty acid salts from the coated polyurethane tubes: 1 cm coated tube in DI water, 37° C.
Procedure: A solution of each respective chlorhexidine/fatty acid salt was prepared and used to infuse a sample of elastomeric material. To perform the test, individual samples, 8 cm pieces of polyurethane tube containing a colorant, were surface dip coated in respective solutions of the chlorhexidine/fatty acid salts. The solutions were prepared as follows: 8.6 g of Tecoflex (Noveon, Cleveland, Ohio) was dissolved in 174 g of Tetrahydrofuran and methanol. 5.88 g of chlorhexidine acetate, chlorhexidine laurate, chlorhexidine myristate, chlorhexidine palmitate and chlorhexidine stearate were individually dissolved into the polymer-solvent mixture. The samples were immersed into the solvent-polymer-salt mixture and then dried at room temperature, evaporating the solvent. A polymeric coating was produced on the surface of the tubes. The amounts of chlorhexidine/fatty acid salt adhered per cm of the tube was measured (Table 2) by exhaustively extracting the salt and measuring UV absorbance at 253 nm relative to controls: For each of the samples, the rate of release of chlorhexidine/fatty acid salts into an aqueous solution was determined. To perform the rate of release test, 1 cm from each of the coated polyurethane tubes, were submerged in DeIonized (DI) water and incubated at 37° C. for a period of 28 days to determine the rate of release of the salts from the respective 1 cm samples of coated polyurethane tubing. The water was collected and replaced with fresh water after approximately 2 hours. The water was again collected and replaced with fresh water after the first day and every seven days thereafter. The amount of chlorhexidine/fatty acid salt in the collected water was measured with an Agilent 8453 UV-Vis Diode Array Detector with a manual setup using a cuvette w/path length of 1 cm. Chlorhexidine absorbance was read at 253 nm and concentration was calculated via a calibration curve developed using standards of 1, 5, 10, 20, 30, 35, and 40 μg/mL chlorhexidine acetate in DI Water. The percentage of chlorhexidine/fatty acid salt released from the sample into an aqueous media (percent release) was calculated according to the following equation: Percent release=(cumulative release at that time period/initial content)*100.

[2] = test system: Pseudomonas aeruginosa ATCC 27853; assay: Basic broth adherence assay on coated polyurethane tubes; type: cell-based
Procedure: The antimicrobial effectiveness of the coated samples was subjected to different durations of DI water extraction by basic broth adherence assay. For each chlorhexidine/fatty acid salt tested, 3 samples of coated tubing were prepared and assayed. To prepare the inoculum, a culture of Pseudomonas aeruginosa ATCC 27853 was used to challenge the coated polyurethane tubes and controls. The negative control used was a length of uncoated polyurethane tube. The challenge microorganism suspension was prepared as follows: approximately three colonies were removed from a secondary working culture plated on Trypticase Soy Agar (TSA) (BD-Falcon) with 5% sheep's blood and added to 10 ml of Trypticase Soy Broth (TSB). The vial was vortexed for approximately 30 seconds and incubated for 4 hours at 37° C. at 100 rpm. Following incubation, the vial was removed and vortexed. The optical density of the organism suspension was read. The inoculum was then diluted in TSB to a concentration of 5×10^4 colony forming units per milliliter (CFU/mL). This concentration was confirmed by the Miles and Misra drop count method.
The basic broth adherence assay was performed in a 96 well micro titer plate. To each well of the micro titer plate containing either a test article or a control, 900 μl of TSB was added. To this, 100 μl of the adjusted inoculum was added (Note: Due to the 1/10 dilution per well, the starting inoculum concentration of each organism was […] for Pseudomonas aeruginosa). The micro titer plates were then sealed via parafilm® around the edges and wrapped in foil to avoid evaporation of liquid and light contact with the samples. The plates were then placed inside a shaker incubator set at 37° C. and 100 rpm for 24 hours. Incubation at 37° C. then continued until the elapse of 7 days, 14 days, and 21 days, respectively, for each of the 3 samples prepared for each chlorhexidine/fatty acid salt.
At the completion of the respective incubation periods, the samples were rinsed, sonicated, the sonicate was plated and adherence was evaluated. More particularly, following incubation, all samples and controls were dip-rinsed twice in phosphate buffered saline (PBS) to remove the surrounding media. After rinsing, test articles were sonicated in micro titer plate wells containing 1 mL of Dey-Engley (DE) neutralizing broth (Difco). The sonication liquid was then serially diluted, and plated onto the surface of DE neutralizing agar. Plates were incubated at 37° C. for 24 to 48 hours and colonies were counted. Recovery counts were recorded as CFU/mL.

[3] = test system: Candida albicans ATCC 10231; assay: Zone of inhibition assay with impregnated polyurethane foam discs; type: cell-based
Procedure: To evaluate antimicrobial properties of polyurethane foam samples infused with the various chlorhexidine/fatty acid salts, a zone of inhibition assay was performed. In this assay, 1.4% (w/v) of chlorhexidine acetate, chlorhexidine caprate, chlorhexidine laurate, chlorhexidine myristate, chlorhexidine palmitate and chlorhexidine stearate solutions in methanol were prepared. A supply of 8 mm discs were punched out of a sheet of polyurethane foam (Rynel medical grade polyurethane foam) with biopsy punches (Miltex Kai). Several discs were placed in each of six 50 ml centrifuge tubes. Approximately 5 ml of each of the different methanol/chlorhexidine/fatty acid salt solutions was added to each respective tube. The discs were centrifuged for 5 minutes to remove any air bubbles and soaked for 1 hr to infuse the foam discs with the respective chlorhexidine/fatty acid salt. Infused discs were transferred to clean centrifuge tubes and vacuum dried at 25° C. for 24 hrs to remove any residual solvents. Initial concentrations of salts, impregnated into the punches, were determined by dissolving the impregnated foams and by high pressure liquid chromatography (HPLC) analysis using an Agilent Eclipse XDB-CN 3u 4.6×150 mm column with initial mobile phase=65% DI water/0.2% trifluoroacetic acid (TFA): 35% Acetonitrile/0.2% TFA. Chlorhexidine absorbance was read at 253 nm and concentration was calculated via a chlorhexidine calibration curve. […] To perform the zone of inhibition assay on the impregnated polyurethane foam discs, agar plates were prepared by mixing 11 g Mueller-Hinton cation-adjusted broth and 1.5 g agarose in 500 ml DI water. The agar was autoclaved for 15 minutes at 121° C., 15 psi. 10 ml of the still hot, liquid agar was pipetted onto petri dishes. The challenge organism, Candida albicans ATCC 10231, was cultivated in Trypticase soy broth, standard microbiological growth medium (TSB). Sterile cotton swabs were dipped into the undiluted culture and the plated agar was fully inoculated with swabs. The 8 mm polyurethane foam discs were transferred daily to a freshly inoculated agar for 9 days. The zone of inhibition (ZOI) was measured using calipers. Actual ZOI was measured by subtracting the diameter of the foam (when wet) from the zone measured and dividing by 2. The results are presented in Table 6, with a graphical representation of the ZOI in FIG. 2;

[4] = Incorporation of chlorhexidine salts into silicone tubing (swelling impregnation, extraction, HPLC); type: physicochemical; settings: for Salt content in silicone elastomeric medical article: one day, equivalent mass of chlorhexidine base extracted;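 for Salt content in silicone elastomeric medical article: columns differ by chlorhexidine salt concentration in the impregnation solution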
Procedure: Chlorhexidine diacetate, Chlorhexidine dodecanoate and chlorhexidine palmitate were loaded into silicone tubing by first dissolving the chlorhexidine salt in a 90% THF+10% Methanol solution.
Impregnated chlorhexidine was extracted from the tubing by immersing in an excess of THF to fully swell it and then adding an equal volume of water to extract the chlorhexidine salt. The quantity of chlorhexidine was determined by previously enumerated HPLC method. It is reported below for different concentration impregnation solutions in terms of the equivalent mass of chlorhexidine base extracted: […]

CCCCCCCCCCCC(=O)O.NC(=NCCCCCCN=C(N)N=C(N)Nc1ccc(Cl)cc1)N=C(N)Nc1ccc(Cl)cc1 [Chlorhexidine Laurate, chlorhexidine dilaurate]
Cumulative release of the chlorhexidine/fatty acid salts from the coated polyurethane tubes ([1]; Day 1): 62 g
Cumulative release of the chlorhexidine/fatty acid salts from the coated polyurethane tubes ([1]; Day 7): 145 g
Cumulative release of the chlorhexidine/fatty acid salts from the coated polyurethane tubes ([1]; Day 14): 165 g
Cumulative release of the chlorhexidine/fatty acid salts from the coated polyurethane tubes ([1]; Day 21): 167 g
Cumulative release of the chlorhexidine/fatty acid salts from the coated polyurethane tubes ([1]; Day 28): 167 g
Time by which approximately all of the salt was released from the coated sample ([1]; coated polyurethane tube in DI water): ≤ 14 days
Log10 reduction of adhered Pseudomonas aeruginosa onto the surface of coated polyurethane tubes ([2]; 7 days): 7
Log10 reduction of adhered Pseudomonas aeruginosa onto the surface of coated polyurethane tubes ([2]; 14 days): 0
Log10 reduction of adhered Pseudomonas aeruginosa onto the surface of coated polyurethane tubes ([2]; 21 days): 0
Inhibition of adherence / antimicrobial effect against Pseudomonas aeruginosa (in words) ([2]; coated polyurethane tubes compared to uncoated control): inhibition was not apparent at 14 days or thereafter
ZOI produced by impregnated polyurethane foam punches against Candida albicans ([3]; Day 1, daily transfer to fresh agar): 27 mm
ZOI produced by impregnated polyurethane foam punches against Candida albicans ([3]; Day 2, daily transfer to fresh agar): 31 mm
ZOI produced by impregnated polyurethane foam punches against Candida albicans ([3]; Day 3, daily transfer to fresh agar): 32 mm
ZOI produced by impregnated polyurethane foam punches against Candida albicans ([3]; Day 4, daily transfer to fresh agar): 27 mm
ZOI produced by impregnated polyurethane foam punches against Candida albicans ([3]; Day 7, daily transfer to fresh agar): 23 mm
ZOI produced by impregnated polyurethane foam punches against Candida albicans ([3]; Day 8, daily transfer to fresh agar): 31 mm
ZOI produced by impregnated polyurethane foam punches against Candida albicans ([3]; Day 9, daily transfer to fresh agar): 29 mm
Zone of inhibition compared with the other salts (in words) ([3]; impregnated polyurethane foam, after several daily transfers / over the 9 day assay): relatively largest ZOI
Salt content in silicone elastomeric medical article ([4]; 1% impregnation solution in 90% THF+10% Methanol): 249 µg/cm
Salt content in silicone elastomeric medical article ([4]; 3% impregnation solution in 90% THF+10% Methanol): 408 µg/cm
Salt content in silicone elastomeric medical article ([4]; 6% impregnation solution in 90% THF+10% Methanol): 526 µg/cm
Salt content in silicone elastomeric medical article ([4]; 10% impregnation solution in 90% THF+10% Methanol): 614 µg/cm
Absorption into silicone tubing compared with the other salts (in words) ([4]; silicone tubing, 90% THF+10% Methanol): absorbed at much higher concentrations than the other salts
